The source of these data is US20070287693A1, “Benzamide Derivatives That Act Upon The Glucokinase Enzyme” (priority 2004, published 2007).

SMILES strings stand for the structures.

The nature of this data set: Plasma protein binding by equilibrium dialysis. In kind it is in vitro ADME. Conditions: rat plasma, 37° C., pH 7.4, read-out: % free in plasma. Here is the method:
3) Measurements of Plasma Protein Binding of Compounds
The plasma protein binding of compounds was measured using the equilibrium dialysis technique (W. Lindner et al, J. Chromatography, 1996, 677, 1-28). Compound was dialysed at a concentration of 20 μM for 18 hours at 37° C. with plasma and isotonic phosphate buffer pH 7.4 (1 ml of each in the dialysis cell). A Spectrum® 20-cell equilibrium dialyser was used together with Teflon, semi-micro dialysis cells and Spectra/Por®2 membrane discs with a molecular weight cut off 12-14000 Dalton, 47 mm (supplied by PerBio Science UK Ltd, Tattenhall, Cheshire). Plasma and buffer samples are removed following dialysis and analysed using HPLCUV/MS (high performance liquid chromatography with UV and mass spec detection) to give the % free level in plasma. [drawing 39]
Background: Equilibrium dialysis compares concentrations on both sides of a semipermeable membrane.

`CC[C@@H](CO)Oc1cc(Oc2ccc(C(=O)N3CCC3)cc2)cc(C(=O)Nc2ccn(C)n2)c1` [Example 13, 3-[4-(azetidin-1-ylcarbonyl)phenoxy]-5-{[(1S)-1-(hydroxymethyl)propyl]oxy}-N-(1-methyl-1H-pyrazol-3-yl)benzamide]: the fraction unbound at 18 h, 20 μM stood at 0.02.
